{"source": "paper PMC12040169", "about": "(PLOS Biology, 2025)", "data": [{"experiment": "in vitro", "conditions": "human, hela cells, % viability", "units": {"viability at 28.5 h, 10 µM": "%"}, "values": [{"smiles": "CC(=C\\C(=O)O)/C(=C/c1ccncc1)C(=O)O", "note": "[CBK278265N]", "viability at 28.5 h, 10 µM": 116}, {"smiles": "CCOC(=O)c1cccc(NS(=O)(=O)c2c(C)noc2C)c1", "note": "[CBK034339]", "viability at 28.5 h, 10 µM": 110}, {"smiles": "c1cc(-c2nccnc2NCC2CCCCC2)ccn1", "note": "[CBK037627]", "viability at 28.5 h, 10 µM": 99.4}, {"smiles": "CN(CC(=O)NCc1ccco1)C1CCCCCC1", "note": "[CBK254305]", "viability at 28.5 h, 10 µM": 97.3}, {"smiles": "CC(C)NC(=O)N[C@H]1CCN2C(=O)c3cc(-c4ccccc4F)ccc3NC(=O)[C@H]12", "note": "[CBK289335]", "viability at 28.5 h, 10 µM": 84.2}, {"smiles": "FC(F)(F)c1nnc2ccc(N3CCN(Cc4ccsc4)CC3)nn12", "note": "[CBK305930]", "viability at 28.5 h, 10 µM": 88.6}, {"smiles": "Cc1cccc(C)c1NC(=O)CSCC(=O)Nc1ccc2ccccc2c1", "note": "[CBK263274]", "viability at 28.5 h, 10 µM": 94.2}, {"smiles": "O=C(Nc1ccc(S(=O)(=O)NCc2ccccc2)cc1)Nc1ccc2c(c1)OCO2", "note": "[CBK268186]", "viability at 28.5 h, 10 µM": 95.1}, {"smiles": "Cc1[nH]c(=O)[nH]c(=S)c1C(=O)Nc1ccc(C(F)(F)F)cc1", "note": "[CBK115510]", "viability at 28.5 h, 10 µM": 96.2}, {"smiles": "Cc1ccc(C)c(S(=O)(=O)NC(Cc2c[nH]c3ccccc23)C(=O)O)c1", "note": "(centres unmarked) [CBK266816]", "viability at 28.5 h, 10 µM": 105}, {"smiles": "O=C(N[C@H]1CCN2C(=O)[C@@H](Cc3c[nH]c4ccccc34)NC(=O)[C@H]12)c1cnccn1", "note": "[CBK289232]", "viability at 28.5 h, 10 µM": 89.3}, {"smiles": "O=C(O)Cc1csc(NC(=O)c2ccc(N3CCCCC3)c([N+](=O)[O-])c2)n1", "note": "[CBK296081]", "viability at 28.5 h, 10 µM": 84.7}, {"smiles": "O=C1CC(c2ccccc2)c2snc(C(=O)O)c2N1", "note": "(centres unmarked) [CBK287111]", "viability at 28.5 h, 10 µM": 90.5}, {"smiles": "Cc1cc(F)ccc1NC(=O)c1n[nH]cc1Cl", "note": "[CBK288020]", "viability at 28.5 h, 10 µM": 92.4}, {"smiles": "COc1cc(C)c(Nc2cc(-c3ccc(C(N)=O)cc3)ncn2)cc1OC", "note": "[CBK090784]", "viability at 28.5 h, 10 µM": 98.9}, {"smiles": "O=C(Nc1ccccc1C(F)(F)F)N(Cc1ccccc1C(F)(F)F)CC1CCNCC1", "note": "[CBK049744]", "viability at 28.5 h, 10 µM": 112}, {"smiles": "COc1cc([N+](=O)[O-])cc2cc(C(=O)NNC(=O)c3ccccc3Cl)c(=O)oc12", "note": "[CBK267011]", "viability at 28.5 h, 10 µM": 92.8}, {"smiles": "COc1ccc(CCN(C)Cc2ccccn2)cc1OC", "note": "[CBK261912]", "viability at 28.5 h, 10 µM": 88.8}, {"smiles": "Cc1nn(C)c(N2CCNCC2)c1NC(=O)C1=CC(=O)CC(C)(C)O1", "note": "[CBK050362T]", "viability at 28.5 h, 10 µM": 99.9}, {"smiles": "Cc1cc(I)ccc1NC(=O)CN(c1ccccc1)S(=O)(=O)c1ccccc1[N+](=O)[O-]", "note": "[CBK265954]", "viability at 28.5 h, 10 µM": 78.6}, {"smiles": "CCNc1cc(-c2cccc(N(C)C)c2)ncn1", "note": "[CBK090878]", "viability at 28.5 h, 10 µM": 97.8}, {"smiles": "Cc1noc(C2COCCN2C(=O)c2cc(Cl)cn2C)n1", "note": "(centres unmarked) [CBK305120]", "viability at 28.5 h, 10 µM": 98.8}, {"smiles": "Nc1ncc(-c2cc3ccccc3o2)nc1-c1ccc(C=O)cc1", "note": "[CBK064126]", "viability at 28.5 h, 10 µM": 91.9}, {"smiles": "NC(=O)CN1CC2(CCNCC2)c2ccccc21", "note": "[CBK116314]", "viability at 28.5 h, 10 µM": 117}, {"smiles": "c1ccc2[nH]c(CCc3nc4ccccc4[nH]3)nc2c1", "note": "[CBK261807]", "viability at 28.5 h, 10 µM": 111}, {"smiles": "CCNC(CO)c1ccccc1", "note": "(centres unmarked) [CBK061785]", "viability at 28.5 h, 10 µM": 109}, {"smiles": "CCOC(=O)c1c(C)nc2ccccc2c1O", "note": "[CBK153666]", "viability at 28.5 h, 10 µM": 110}, {"smiles": "COc1ccccc1-c1nccnc1OCCc1c[nH]c2ccccc12", "note": "[CBK106807]", "viability at 28.5 h, 10 µM": 87.7}, {"smiles": "Cc1cnccc1CN1CCC[C@@H]2CN(C(=O)CC(C)C)C[C@@H]21", "note": "[CBK285289]", "viability at 28.5 h, 10 µM": 104}, {"smiles": "COc1cc(-c2nnc(NC(C)=O)o2)cc(OC)c1OC", "note": "[CBK287698]", "viability at 28.5 h, 10 µM": 95.2}, {"smiles": "Cn1c(=O)c2c(nc(CN3CCOCC3)n2Cc2c(F)cccc2Cl)n(C)c1=O", "note": "[CBK269224]", "viability at 28.5 h, 10 µM": 98.9}, {"smiles": "CN(C)c1nc(N2CCN(c3ccc(F)cc3)CC2)cc(C(F)(F)F)n1", "note": "[CBK007432]", "viability at 28.5 h, 10 µM": 91.1}, {"smiles": "Cn1cc(C(=O)CCC(=O)NC2CCCN(c3ncccn3)C2)cn1", "note": "(centres unmarked) [CBK305480]", "viability at 28.5 h, 10 µM": 94.1}, {"smiles": "CC1=NC(O)(C(F)(F)F)C(c2ccccc2)S1", "note": "(centres unmarked) [CBK009121]", "viability at 28.5 h, 10 µM": 87.8}, {"smiles": "O=C(O)C[C@@H]1CCN(C(=O)NCc2ccccc2)C[C@@H]1CC1=NCCc2ccccc21", "note": "[CBK289161]", "viability at 28.5 h, 10 µM": 94.7}, {"smiles": "O=C(NCCN1CCOCC1)N1CCN(c2ccccc2)CC1", "note": "[CBK155180]", "viability at 28.5 h, 10 µM": 83.8}, {"smiles": "OC1(c2ccc(F)cc2)CC2CCC(C1)N2", "note": "(centres unmarked) [CBK281947]", "viability at 28.5 h, 10 µM": 89.7}, {"smiles": "Cn1nccc1CCC(=O)N1CC[C@H]2NC(=O)c3ccccc3OCCCCC[C@H]2C1", "note": "[CBK292028]", "viability at 28.5 h, 10 µM": 97.4}, {"smiles": "CCC(NC(=O)Cc1c(C)nc(SC)[nH]c1=O)c1ccc(F)cc1", "note": "(centres unmarked) [CBK282653]", "viability at 28.5 h, 10 µM": 81.7}, {"smiles": "O=C(Nc1nnc(C2=COCCO2)o1)c1ccc(Cl)cc1Cl", "note": "[CBK287419]", "viability at 28.5 h, 10 µM": 78}, {"smiles": "CCC1(CC)OC(N[C@@H](C)c2ccc(Cl)cc2)=NC1=O", "note": "[CBK126666]", "viability at 28.5 h, 10 µM": 93.2}, {"smiles": "CC(=O)N1CC(C(=O)N2CC3(CCCC3)c3c(F)cccc32)C1", "note": "[CBK306292]", "viability at 28.5 h, 10 µM": 97.6}, {"smiles": "O=C(CN1C(=O)c2ccc([N+](=O)[O-])cc2C1=O)Nc1ccc(O)cc1C(=O)O", "note": "[CBK263456]", "viability at 28.5 h, 10 µM": 95.5}, {"smiles": "O=C1CC[C@@H](NCc2ccncc2)[C@H](c2cc(F)cc(F)c2)N1", "note": "[CBK283131]", "viability at 28.5 h, 10 µM": 92.9}, {"smiles": "COCC(=O)NC(C)c1nc2ccccc2n1Cc1ccccc1C", "note": "(centres unmarked) [CBK269885]", "viability at 28.5 h, 10 µM": 88.1}, {"smiles": "O=C(NCC1CCCN1)c1ccccc1Nc1cccc(C(F)(F)F)c1", "note": "(centres unmarked) [CBK115916C]", "viability at 28.5 h, 10 µM": 107}, {"smiles": "COc1ccc(-c2nc(NC(=O)c3ccco3)cnc2-c2cccc(C)c2)cn1", "note": "[CBK036954]", "viability at 28.5 h, 10 µM": 96.8}, {"smiles": "CCN(CC)C(=O)CN1CCC(c2ccc(OC)cc2)CC1", "note": "[CBK283559]", "viability at 28.5 h, 10 µM": 102}, {"smiles": "COc1cccc2cc(-c3cncn3CCCC(C)(C)CO)oc12", "note": "[CBK281817]", "viability at 28.5 h, 10 µM": 112}, {"smiles": "Cn1nnnc1Sc1cc(=O)n(C)c(=O)n1C", "note": "[CBK011072]", "viability at 28.5 h, 10 µM": 114}, {"smiles": "Cn1nccc1NS(=O)(=O)c1cc(C(=O)O)c(Cl)cc1F", "note": "[CBK062712]", "viability at 28.5 h, 10 µM": 106}, {"smiles": "Fc1cccc2sc(Nc3nc(-c4cccs4)cs3)nc12", "note": "[CBK287476]", "viability at 28.5 h, 10 µM": 85.9}, {"smiles": "O=c1[nH]c2ncc(-c3ccoc3)nc2n1Cc1ccco1", "note": "[CBK064639]", "viability at 28.5 h, 10 µM": 102}, {"smiles": "COc1cc(CNc2nccnc2-c2cccc(CO)c2)cc(OC)c1", "note": "[CBK037403]", "viability at 28.5 h, 10 µM": 90.6}, {"smiles": "CS(=O)(=O)N(CC(=O)NCc1ccccn1)c1ccc2c(c1)OCO2", "note": "[CBK269385]", "viability at 28.5 h, 10 µM": 87.2}, {"smiles": "CCNC(=O)Nc1ccc2ccc(-c3cccnc3)nc2n1", "note": "[CBK070652]", "viability at 28.5 h, 10 µM": 85}, {"smiles": "Cc1ccc(C2(CN3CCC(NC(=O)C4CC4)CC3)CC2)cc1", "note": "[CBK285359]", "viability at 28.5 h, 10 µM": 83.9}, {"smiles": "CNS(=O)(=O)c1cc(C(=O)O)c(OC)cc1OC", "note": "[CBK110325]", "viability at 28.5 h, 10 µM": 84.6}, {"smiles": "CCCCCNC(=O)N1CCN(CCCC(c2ccc(F)cc2)c2ccc(F)cc2)CC1", "note": "[CBK024917C]", "viability at 28.5 h, 10 µM": 103}, {"smiles": "CC(C)(C)OC(=O)N1CCN(Cc2ccn(Cc3ccc(S(C)(=O)=O)cc3)c2)CC1", "note": "[CBK144936]", "viability at 28.5 h, 10 µM": 119}, {"smiles": "CCN1CCN(C(=O)c2c[nH]c3ccccc23)CC1", "note": "[CBK200245]", "viability at 28.5 h, 10 µM": 103}, {"smiles": "COc1ccc(-c2cc(C(=O)Nc3ccc(OC(F)(F)F)cc3)cnc2-c2ccccc2)cn1", "note": "[CBK036621]", "viability at 28.5 h, 10 µM": 79.2}, {"smiles": "CN(Cc1ccccc1)c1nccnc1-c1cccnc1", "note": "[CBK037414]", "viability at 28.5 h, 10 µM": 93.5}]}, {"experiment": "in vitro", "conditions": "human, hela cells, % viability, bulk resorufin, single well", "units": {"viability at 28.5 h, 10 µM": "%"}, "values": [{"smiles": "Cc1cccc(N2C(=O)NC(=O)C(CCc3ccncc3)(CCc3ccncc3)C2=O)c1", "note": "[CBK264898]", "viability at 28.5 h, 10 µM": 96.3}, {"smiles": "O=C1NC(=O)N(Cc2ccco2)C(=O)/C1=C\\c1cn(Cc2ccccc2)c2ccccc12", "note": "[CBK263939]", "viability at 28.5 h, 10 µM": 88.5}]}]}
